Source: patent US8729023B2 (priority 2002, dated 2014)
Read-outs that look alike come from different tables or passages of the source. *1 amine or outer side, *2 acyl side, *3 side chain or, on linkers, in order; H or OH if unused. Where a SMILES comes first, the peptide text is derived from it. Suc = O=C(CCC(=O)[*:2])[*:1]

Key:
MNU-induced breast tumor = assay: Effect of IRL1620 on bio-distribution of [^3H] paclitaxel in tumor and major organs of breast tumor bearing rats; settings: IRL1620 3 nmol/kg
[1] = system: JHU-4 (MAT-LyLu) prostate tumor; settings: IRL1620 3 nmol/kg alone; day 16
[2] = system: JHU-4 (MAT-LyLu) prostate tumor; assay: Effect of IRL1620 on [^14C]doxorubicin concentration in tumor and organs of prostate tumor bearing rats; assay type: in vivo, rat; settings: for increase in concentration of [^14C]doxorubicin in tumor compared to saline treated rats: sacrifice 3 hours after
Experimental: Prostate tumors were induced in male Copenhagen rats using JHU-4 (MAT-LyLu) cells obtained from ATCC (Manassas, Va.). See Gaddipati et al., J Exp Ther Oncol, 4(3): 203-12 (2004) which is hereby incorporated by reference. The cells were maintained in RPMI 1640 medium supplemented with fetal bovine serum (10%) in a humidified incubator containing 5% CO2 at 37° C. Hair was shaved from the dorsal side of the neck, and animals were inoculated with 10,000 JHU-4 (MAT-LyLu) cells in 100 μl phosphate buffered saline by subcutaneous (s.c.) injection. Tumor appearance and location was monitored by manual palpation and tumor diameters were measured with a digital caliper. Experimental procedures began once tumor size reached about 200 mm^3.
Biodistribution Study. Tumor bearing rats were randomly grouped (N=6/group) to receive saline or IRL1620 (1, 3 or 6 nmol/kg) via the tail vein in a final volume of 0.2 ml. Rats from each group then received [^14C]doxorubicin (1 μCi/rat) i.v. in a final volume of 1.0 ml 15 minutes after saline or IRL1620 administration. Animals were then sacrificed 3 hours after [^14C]doxorubicin administration. The concentration of [^14C]doxorubicin in the tumor, heart, brain, kidneys, liver, lungs, bone marrow, prostate, skeletal muscles and spleen were examined. Specifically, tumor and organs were sliced into small pieces. The femurs from both legs were separated and weighed with bone marrow flushed out using a syringe containing tissue solubilizer. About 500 mg of tissue or tumor was placed in separate vials containing tissue solubilizer (6 ml) and incubated in a water bath at about 50° C. The vials were removed from the water bath after the tissue or tumor was dissolved and 1.2 ml of 10% glacial acetic acid was added. The contents of the vial were then equally divided into 3 vials and 15 ml of liquid scintillation cocktail (Safety Solve, RPI Corp, Chicago, Ill.) was added to each vial and kept overnight for equilibration. The radioactivity in the tubes was counted using a liquid scintillation counter (Beckman Coulter, LS 6500).

[3] = system: human melanoma cells (UISO-MEL-2) tumor; settings: melanoma mice
[4] = Effect of IRL1620 on plasma pharmacokinetics of paclitaxel, HPLC-UV; assay type: in vivo, rat; settings: normal or tumor bearing rats; paclitaxel i.v. 3 mg/kg 15 minutes after IRL1620 3 nmol/kg
Experimental: Virgin female Sprague Dawley rats (Harlan Co., Madison, Wis.), 48 days old (120-140 g) were used for this study. Upon arrival, all rats were housed three to a cage, in a room with controlled temperature (23±1° C.), humidity (50±10%) and artificial light (0600-1800 hr). The rats were given food and water ad libitum. The experiments were begun only after the rats have been acclimatized to the environment for at least 4 days.
N-methyl-n-nitrosourea (MNU) was administered at a dose of 50 mg/kg, i.p. and rats were palpated twice weekly. Once tumors reached about 75-100 mm^3, pharmacokinetic studies were performed.
HPLC-UV studies. […]
Plasma samples were analyzed for paclitaxel using an HPLC system. […] A 100 μL (lower standard curve and samples collected after IV administration) aliquot of the reconstituted material was injected into a 4 mm NovaPak 150×3.9 mm C18 column (Waters Associates, Milford, Mass.) preceded by a 4 mm NovaPak 20×3.9 mm C18 precolumn using a Waters 2695 separations module connected to a Waters 2487 absorbance detector set at 227 nm. […] Plasma concentrations for paclitaxel were calculated from the ratio of the area of the paclitaxel peak to the area of the N-cyclohexyl benzamide peak using least-squares linear regression and weighting by 1/x. Within day and between days variability measured by a coefficient of variation was <10%. […]

[5] = system: JHU-4 (MAT-LyLu) prostate tumor; settings: IRL1620 3 nmol/kg alone; day 19
[6] = system: MNU-induced breast tumors; settings: IRL1620 3 nmol/kg alone; 5 doses; 30 days after final dose
[7] = paclitaxel plasma, three compartmental model, tumor bearing rats, after vehicle or IRL1620 3 nmol/kg

SMILES: CC[C@H](C)[C@H](NC(=O)[C@H](CC(=O)O)NC(=O)[C@H](CC(C)C)NC(=O)[C@H](Cc1c[nH]cn1)NC(=O)[C@H](C)NC(=O)[C@H](Cc1ccccc1)NC(=O)[C@H](Cc1ccc(O)cc1)NC(=O)[C@@H](NC(=O)[C@H](C)NC(=O)[C@H](CCC(=O)O)NC(=O)[C@H](CCC(=O)O)NC(=O)[C@H](CC(=O)O)NC(=O)CCC(=O)O)C(C)C)C(=O)N[C@H](C(=O)N[C@@H](Cc1c[nH]c2ccccc12)C(=O)O)[C@@H](C)CC [IRL1620, N-suc-[Glu9, Ala11, 15]ET-1 (8-21)] (Suc-DEEAVYFAHLDIIW-OH)
- accumulation of paclitaxel in the liver, lungs, kidneys and spleen compared to control animals (MNU-induced breast tumor): did not significantly alter
- increase in tumor paclitaxel concentration compared to saline treated rats (MNU-induced breast tumor; [^3H] paclitaxel administered 15 minutes after IRL1620, sacrifice 3 hours after paclitaxel): 277.1%
- increase in tumor paclitaxel concentration compared to saline treated rats (MNU-induced breast tumor; [^3H] paclitaxel administered 240 minutes after IRL1620): 34.7%
- body weight [1]: 202.2 ± 7.28 g
- percent difference in body weight gain from the beginning of the experiment [1]: 14.19±1.66%
- effect on the pharmacokinetic profile of paclitaxel (non-compartmental analysis, tumor bearing rats, IRL1620 3 nmol/kg i.v. 15 minutes before paclitaxel): did not affect
- Lambda (paclitaxel plasma, non-compartmental, tumor bearing rats, paclitaxel i.v. 15 minutes after vehicle or IRL1620 3 nmol/kg): 0.10 ± 0.05
- K10 [7]: 1.72 ± 0.57
- K12 [7]: 34.93 ± 23.26
- K13 [7]: 3.92 ± 1.88
- paclitaxel compartmental pharmacokinetic parameters in the IRL1620 treated group versus the vehicle treated group (three compartmental model, IRL1620 3 nmol/kg 15 minutes before paclitaxel): not significantly different
- change in the uptake of [^14C]doxorubicin in tumor or other tissues ([2]; 1 nmol/kg IRL1620 15 minutes before [^14C]doxorubicin): did not produce any significant change
- increase in concentration of [^14C]doxorubicin in tumor compared to saline treated rats ([2]; 3 nmol/kg IRL1620 15 minutes before [^14C]doxorubicin): 115.85%
- increase in concentration of [^14C]doxorubicin in tumor compared to saline treated rats ([2]; 6 nmol/kg IRL1620 15 minutes before [^14C]doxorubicin): 80.02%
- accumulation of [^14C]doxorubicin in the heart, brain, kidneys, liver, lungs, bone marrow, prostate, skeletal muscles or spleen compared to control animals ([2]; IRL1620 1, 3 or 6 nmol/kg): No dose of IRL1620 produced significant increases
- accumulation of [^3H]paclitaxel in the heart, kidneys, liver, lungs or spleen compared to saline treated animals ([3]; IRL1620 3 nmol/kg): did not produce significant increases
- increase in tumor [^3H]paclitaxel compared to vehicle treated mice ([3]; IRL1620 3 nmol/kg 15 minutes before [^3H]paclitaxel): 572.99%
- tumor [^3H]paclitaxel concentration ([3]; IRL1620 3 nmol/kg 15 minutes before [^3H]paclitaxel, sacrifice 3 hours after): 274.28 nmol/g tissue
- pharmacokinetic profile of paclitaxel [4]: not affected
- body weight [5]: 175.72 ± 2.35 g
- increase in body weight compared to baseline [6]: < 10%
